Data taken from patent publication US8158636B2, “Compounds and methods for kinase modulation, and indications therefor” (Plexxikon Inc., priority 2008, dated 2012).

Columns and labels:
Type in all cases: biochemical
[1] = biological target: Kit (Homo sapiens, UniProt P10721); experiment: Kinase activity assay, Kit; details: Table 1j; read-out: activity toward kinase Kit, IC50
From the text: (§1) Assays for the activity of kinases, including, but not limited to, Fms, Kit, B-Raf, B-Raf V600E, c-Raf-1, and TrkA are known in the art, for example as described in US Patent Publication Number US20070032519 and U.S. patent application Ser. No. 11/473,347 (see also, PCT publication WO2007002433), the disclosures of which are hereby incorporated by reference with respect to such assays.

[2] = biological target: Fms (Homo sapiens, UniProt P07333); experiment: Kinase activity assay, Fms; details: Table 1h; read-out: activity toward kinase Fms, IC50
Chain of Fms (P07333 20-972): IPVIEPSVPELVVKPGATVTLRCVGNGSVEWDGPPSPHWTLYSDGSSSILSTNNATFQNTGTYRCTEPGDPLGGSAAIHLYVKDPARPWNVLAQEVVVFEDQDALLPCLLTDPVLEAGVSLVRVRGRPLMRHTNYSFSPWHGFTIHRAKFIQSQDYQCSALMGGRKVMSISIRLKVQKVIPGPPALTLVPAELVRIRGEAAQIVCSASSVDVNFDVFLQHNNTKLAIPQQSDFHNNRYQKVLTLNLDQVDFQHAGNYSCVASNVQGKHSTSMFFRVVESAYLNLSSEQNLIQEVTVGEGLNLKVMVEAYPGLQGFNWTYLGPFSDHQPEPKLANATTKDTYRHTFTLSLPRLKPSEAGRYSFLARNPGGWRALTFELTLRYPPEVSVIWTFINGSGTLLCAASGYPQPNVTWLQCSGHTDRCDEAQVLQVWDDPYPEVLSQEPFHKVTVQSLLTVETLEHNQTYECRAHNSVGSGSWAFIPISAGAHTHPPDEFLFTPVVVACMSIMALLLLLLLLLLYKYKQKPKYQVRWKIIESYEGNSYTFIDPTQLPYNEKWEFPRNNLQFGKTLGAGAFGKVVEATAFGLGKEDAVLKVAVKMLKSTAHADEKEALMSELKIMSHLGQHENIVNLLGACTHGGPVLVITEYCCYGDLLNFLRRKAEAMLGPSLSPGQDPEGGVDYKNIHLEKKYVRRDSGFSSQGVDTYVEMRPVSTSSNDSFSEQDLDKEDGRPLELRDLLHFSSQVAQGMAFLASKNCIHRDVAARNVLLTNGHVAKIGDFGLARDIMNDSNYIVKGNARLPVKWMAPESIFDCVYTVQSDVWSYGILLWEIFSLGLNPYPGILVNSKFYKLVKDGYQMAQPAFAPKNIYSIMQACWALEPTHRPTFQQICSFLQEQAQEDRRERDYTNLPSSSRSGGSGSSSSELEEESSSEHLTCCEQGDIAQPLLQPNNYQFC
From the text: as §1

[3] = biological target: T1, Flt-3 (Homo sapiens, UniProt P36888); experiment: Kinase activity assay, Flt-3; details: Table 1g; read-out: activity toward kinase Flt-3, IC50
T1 sequence (P36888 27-993): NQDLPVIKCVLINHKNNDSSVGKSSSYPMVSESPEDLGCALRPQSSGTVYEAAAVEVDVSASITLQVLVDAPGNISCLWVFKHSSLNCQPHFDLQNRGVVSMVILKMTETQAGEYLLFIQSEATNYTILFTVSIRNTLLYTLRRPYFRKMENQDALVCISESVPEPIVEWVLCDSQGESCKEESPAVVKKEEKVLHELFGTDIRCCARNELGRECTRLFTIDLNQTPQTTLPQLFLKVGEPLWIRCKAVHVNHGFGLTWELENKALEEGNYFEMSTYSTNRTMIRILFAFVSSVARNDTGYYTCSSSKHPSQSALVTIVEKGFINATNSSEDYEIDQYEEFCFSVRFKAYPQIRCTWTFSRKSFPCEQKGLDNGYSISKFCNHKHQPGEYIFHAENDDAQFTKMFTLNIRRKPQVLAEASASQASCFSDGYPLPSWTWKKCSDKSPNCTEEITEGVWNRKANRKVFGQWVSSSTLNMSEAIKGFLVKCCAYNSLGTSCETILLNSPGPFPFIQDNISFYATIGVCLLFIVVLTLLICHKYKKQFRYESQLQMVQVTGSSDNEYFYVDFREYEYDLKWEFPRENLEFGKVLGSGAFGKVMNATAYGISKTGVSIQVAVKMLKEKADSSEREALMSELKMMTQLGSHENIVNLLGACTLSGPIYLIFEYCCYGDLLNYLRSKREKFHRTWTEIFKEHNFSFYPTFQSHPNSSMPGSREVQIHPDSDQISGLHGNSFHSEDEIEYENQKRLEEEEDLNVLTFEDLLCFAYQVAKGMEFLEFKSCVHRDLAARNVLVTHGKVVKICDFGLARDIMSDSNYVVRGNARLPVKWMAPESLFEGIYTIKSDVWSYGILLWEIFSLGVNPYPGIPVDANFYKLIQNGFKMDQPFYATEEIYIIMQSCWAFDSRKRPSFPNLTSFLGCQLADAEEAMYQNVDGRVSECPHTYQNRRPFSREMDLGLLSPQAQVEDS
From the text: as §1

[4] = biological target: Kdr (Homo sapiens, UniProt P35968); experiment: Kinase activity assay, Kdr; details: Table 1i; read-out: activity toward kinase Kdr, IC50
Chain of Kdr (P35968 20-1356): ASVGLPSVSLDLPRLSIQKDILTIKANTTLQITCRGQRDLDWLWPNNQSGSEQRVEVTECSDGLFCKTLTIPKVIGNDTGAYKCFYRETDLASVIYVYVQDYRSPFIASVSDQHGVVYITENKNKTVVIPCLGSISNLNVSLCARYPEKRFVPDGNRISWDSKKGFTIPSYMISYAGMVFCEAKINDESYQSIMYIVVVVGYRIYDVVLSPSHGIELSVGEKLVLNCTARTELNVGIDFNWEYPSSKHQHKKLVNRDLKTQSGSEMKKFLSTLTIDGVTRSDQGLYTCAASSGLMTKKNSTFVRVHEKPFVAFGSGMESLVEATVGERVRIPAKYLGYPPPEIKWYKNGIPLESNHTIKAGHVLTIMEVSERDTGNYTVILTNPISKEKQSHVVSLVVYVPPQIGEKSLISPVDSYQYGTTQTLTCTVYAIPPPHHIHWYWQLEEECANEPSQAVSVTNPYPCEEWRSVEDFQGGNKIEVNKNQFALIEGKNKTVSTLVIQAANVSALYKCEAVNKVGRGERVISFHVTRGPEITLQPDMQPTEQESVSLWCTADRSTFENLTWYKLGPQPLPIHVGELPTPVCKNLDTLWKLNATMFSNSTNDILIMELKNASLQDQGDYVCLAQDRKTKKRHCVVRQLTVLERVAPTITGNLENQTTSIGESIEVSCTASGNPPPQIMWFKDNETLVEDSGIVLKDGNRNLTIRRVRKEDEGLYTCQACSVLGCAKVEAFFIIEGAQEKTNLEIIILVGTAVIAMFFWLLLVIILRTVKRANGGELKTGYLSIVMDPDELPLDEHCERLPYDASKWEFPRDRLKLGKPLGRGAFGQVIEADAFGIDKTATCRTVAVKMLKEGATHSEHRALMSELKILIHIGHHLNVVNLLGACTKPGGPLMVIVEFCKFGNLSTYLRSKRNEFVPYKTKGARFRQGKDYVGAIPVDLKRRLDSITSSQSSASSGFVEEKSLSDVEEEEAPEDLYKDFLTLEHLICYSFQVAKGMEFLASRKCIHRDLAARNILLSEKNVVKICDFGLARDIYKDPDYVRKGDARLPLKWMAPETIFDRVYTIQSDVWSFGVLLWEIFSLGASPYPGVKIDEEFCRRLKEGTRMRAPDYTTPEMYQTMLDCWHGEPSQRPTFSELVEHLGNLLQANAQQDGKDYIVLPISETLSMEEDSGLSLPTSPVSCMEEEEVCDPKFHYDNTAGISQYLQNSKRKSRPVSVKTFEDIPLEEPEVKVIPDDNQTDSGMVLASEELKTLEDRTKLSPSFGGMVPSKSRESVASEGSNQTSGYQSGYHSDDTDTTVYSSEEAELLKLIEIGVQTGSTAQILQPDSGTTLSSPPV
From the text: as §1

[5] = biological target: B-Raf V600E (Homo sapiens, UniProt P15056, V600E); experiment: Kinase activity assay, B-Raf V600E; details: Table 1c; read-out: activity toward kinase B-Raf V600E, IC50
Chain of B-Raf V600E (P15056 whole entry V600E): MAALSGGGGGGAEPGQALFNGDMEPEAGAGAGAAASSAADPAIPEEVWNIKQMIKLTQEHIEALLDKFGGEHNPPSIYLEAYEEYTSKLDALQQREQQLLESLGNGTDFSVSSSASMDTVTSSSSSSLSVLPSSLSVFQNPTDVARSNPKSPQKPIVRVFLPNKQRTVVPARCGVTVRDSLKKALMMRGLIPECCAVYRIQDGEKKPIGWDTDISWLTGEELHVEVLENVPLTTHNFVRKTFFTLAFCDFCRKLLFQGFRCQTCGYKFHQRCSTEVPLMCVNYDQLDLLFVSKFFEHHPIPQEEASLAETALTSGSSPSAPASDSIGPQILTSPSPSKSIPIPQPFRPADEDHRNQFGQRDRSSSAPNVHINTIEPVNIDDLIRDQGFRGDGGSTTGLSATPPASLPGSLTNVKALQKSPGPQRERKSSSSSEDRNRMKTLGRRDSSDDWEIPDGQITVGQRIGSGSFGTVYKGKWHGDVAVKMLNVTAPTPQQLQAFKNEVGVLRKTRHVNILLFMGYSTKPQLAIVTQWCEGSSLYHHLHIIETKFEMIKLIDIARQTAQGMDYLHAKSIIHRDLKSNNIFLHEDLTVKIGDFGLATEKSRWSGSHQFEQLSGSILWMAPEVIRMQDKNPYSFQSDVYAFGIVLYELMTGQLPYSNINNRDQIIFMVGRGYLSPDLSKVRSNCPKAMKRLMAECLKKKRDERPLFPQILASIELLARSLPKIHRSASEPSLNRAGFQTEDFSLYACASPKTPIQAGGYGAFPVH
From the text: as §1

[6] = biological target: C-Raf (Homo sapiens, UniProt P04049); experiment: Kinase activity assay, C-Raf; details: Table 1d; read-out: activity toward kinase C-Raf, IC50
Chain of C-Raf (P04049 whole entry): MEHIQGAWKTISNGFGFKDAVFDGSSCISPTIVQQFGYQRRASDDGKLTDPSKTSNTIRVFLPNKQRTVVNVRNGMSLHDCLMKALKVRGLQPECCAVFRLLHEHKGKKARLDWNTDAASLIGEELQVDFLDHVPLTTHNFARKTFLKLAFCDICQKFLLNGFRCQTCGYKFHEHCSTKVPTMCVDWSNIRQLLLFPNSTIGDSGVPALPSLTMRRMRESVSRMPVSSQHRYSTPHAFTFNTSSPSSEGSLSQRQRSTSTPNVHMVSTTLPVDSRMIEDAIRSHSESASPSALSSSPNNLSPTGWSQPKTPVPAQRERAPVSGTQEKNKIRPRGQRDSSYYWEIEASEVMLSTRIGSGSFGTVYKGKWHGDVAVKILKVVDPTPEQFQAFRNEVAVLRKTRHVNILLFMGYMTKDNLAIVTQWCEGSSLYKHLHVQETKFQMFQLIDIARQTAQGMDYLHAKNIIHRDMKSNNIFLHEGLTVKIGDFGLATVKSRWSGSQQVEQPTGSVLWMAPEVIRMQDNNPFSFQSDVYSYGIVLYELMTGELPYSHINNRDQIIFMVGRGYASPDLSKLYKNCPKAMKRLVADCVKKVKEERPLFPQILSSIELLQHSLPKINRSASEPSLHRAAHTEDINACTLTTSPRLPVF
From the text: as §1

[7] = biological target: B-Raf (Homo sapiens, UniProt P15056); experiment: Kinase activity assay, B-Raf; details: Table 1b; read-out: activity toward kinase B-Raf, IC50
Chain of B-Raf (P15056 whole entry): as the sequence (P15056 whole entry V600E) above, with E600V counted along it
From the text: as §1

[8] = biological target: TrkA (Homo sapiens, UniProt P04629); experiment: Kinase activity assay, TrkA; details: Table 1m; read-out: activity toward kinase TrkA, IC50
From the text: as §1

[9] = biological target: Src (Homo sapiens, UniProt P12931); experiment: Kinase activity assay, Src; details: Table 1k; read-out: activity toward kinase Src, IC50
From the text: as §1

Measured: IC50

Chain of Kit (P10721 26-976): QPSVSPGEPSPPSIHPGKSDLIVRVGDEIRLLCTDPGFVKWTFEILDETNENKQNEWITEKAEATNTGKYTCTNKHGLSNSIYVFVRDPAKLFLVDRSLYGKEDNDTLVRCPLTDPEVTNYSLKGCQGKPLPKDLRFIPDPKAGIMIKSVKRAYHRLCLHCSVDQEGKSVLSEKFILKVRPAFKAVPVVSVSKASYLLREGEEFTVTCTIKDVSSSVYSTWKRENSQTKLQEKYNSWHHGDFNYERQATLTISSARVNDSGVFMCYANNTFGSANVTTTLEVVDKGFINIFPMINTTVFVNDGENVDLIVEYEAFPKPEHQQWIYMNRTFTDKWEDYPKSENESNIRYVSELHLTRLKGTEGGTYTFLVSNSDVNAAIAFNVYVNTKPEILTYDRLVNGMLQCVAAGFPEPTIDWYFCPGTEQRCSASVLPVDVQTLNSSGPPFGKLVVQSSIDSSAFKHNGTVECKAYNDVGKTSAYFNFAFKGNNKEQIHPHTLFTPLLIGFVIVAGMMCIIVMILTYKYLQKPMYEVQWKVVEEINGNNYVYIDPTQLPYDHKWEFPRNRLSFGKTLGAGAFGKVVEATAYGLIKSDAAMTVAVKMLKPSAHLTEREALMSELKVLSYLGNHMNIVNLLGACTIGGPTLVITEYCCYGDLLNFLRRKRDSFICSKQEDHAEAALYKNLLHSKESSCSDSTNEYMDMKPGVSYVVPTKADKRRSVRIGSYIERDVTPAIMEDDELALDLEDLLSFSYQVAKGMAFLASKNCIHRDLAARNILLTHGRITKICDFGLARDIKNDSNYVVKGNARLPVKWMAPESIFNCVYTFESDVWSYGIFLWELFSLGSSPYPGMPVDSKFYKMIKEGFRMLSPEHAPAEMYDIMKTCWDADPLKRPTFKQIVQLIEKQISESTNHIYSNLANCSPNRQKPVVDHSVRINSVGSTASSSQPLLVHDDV

COc1ccc(CNc2ccc(Cc3c[nH]c4ncncc34)cn2)cn1 [P-0002, (6-Methoxy-pyridin-3-ylmethyl)-[5-(7H-pyrrolo[2,3-d]pyrimidin-5-ylmethyl)-pyridin-2-yl]-amine]
≤ 10 µM: [1] | [2] | [3] | [4] | [5]

Fc1nc(NCc2ccc(N3CCOCC3)nc2)ccc1Cc1c[nH]c2ncncc12 [P-0039, [6-Fluoro-5-(7H-pyrrolo[2,3-d]pyrimidin-5-ylmethyl)-pyridin-2-yl]-(6-morpholin-4-yl-pyridin-3-ylmethyl)-amine]
≤ 10 µM: [2] | [4] | [6] | [5]

COc1cc(Cc2c[nH]c3ncnc(OC)c23)cnc1NCc1ccc(C(F)(F)F)nc1 [P-0096, [3-Methoxy-5-(4-methoxy-7H-pyrrolo[2,3-d]pyrimidin-5-ylmethyl)-pyridin-2-yl]-(6-trifluoromethyl-pyridin-3-ylmethyl)-amine]
≤ 10 µM: [1] | [7] | [2] | [4] | [6]

COc1ncnc2[nH]cc(Cc3cnc(NCc4ccc(C(F)(F)F)nc4)nc3)c12 [P-0102, [5-(4-Methoxy-7H-pyrrolo[2,3-d]pyrimidin-5-ylmethyl)-pyrimidin-2-yl]-(6-trifluoromethyl-pyridin-3-ylmethyl)-amine]
not listed: [3] | [9]
≤ 10 µM: all other assays above

Fc1nc(NCc2cncc(Cl)c2)ccc1Cc1c[nH]c2ncncc12 [P-0044, (5-Chloro-pyridin-3-ylmethyl)-[6-fluoro-5-(7H-pyrrolo[2,3-d]pyrimidin-5-ylmethyl)-pyridin-2-yl]-amine]
≤ 10 µM: [2] | [4] | [6] | [5]

FC(F)(F)c1ccc(CNc2ccc(Cc3c[nH]c4ncnc(C5CCCC5)c34)cn2)cn1 [P-0104, [5-(4-Cyclopentyl-7H-pyrrolo[2,3-d]pyrimidin-5-ylmethyl)-pyridin-2-yl]-(6-trifluoromethyl-pyridin-3-ylmethyl)-amine]
≤ 10 µM: [1] | [2] | [3]

CC(C)Oc1ncccc1CNc1ccc(Cc2c[nH]c3ncncc23)c(F)n1 [P-0057, [6-Fluoro-5-(7H-pyrrolo[2,3-d]pyrimidin-5-ylmethyl)-pyridin-2-yl]-(2-isopropoxy-pyridin-3-ylmethyl)-amine]
≤ 10 µM: [1] | [2] | [8] | [4] | [6]

COc1ncnc2[nH]cc(Cc3cnc(NCc4ccc(C(F)(F)F)nc4)c(F)c3)c12 [P-0103, [3-Fluoro-5-(4-methoxy-7H-pyrrolo[2,3-d]pyrimidin-5-ylmethyl)-pyridin-2-yl]-(6-trifluoromethyl-pyridin-3-ylmethyl)-amine]
not listed: [3] | [9]
≤ 10 µM: all other assays above

CS(=O)(=O)c1ccc(F)cc1CNc1ccc(Cc2c[nH]c3ncncc23)c(F)n1 [P-0052, (5-Fluoro-2-methanesulfonyl-benzyl)-[6-fluoro-5-(7H-pyrrolo[2,3-d]pyrimidin-5-ylmethyl)-pyridin-2-yl]-amine]
≤ 10 µM: [7] | [2] | [8] | [6] | [5]

Fc1nc(NCc2cccnc2OC2CCCC2)ccc1Cc1c[nH]c2ncncc12 [P-0070, (2-Cyclopentyloxy-pyridin-3-ylmethyl)-[6-fluoro-5-(7H-pyrrolo[2,3-d]pyrimidin-5-ylmethyl)-pyridin-2-yl]-amine]
not listed: [3] | [9]
≤ 10 µM: all other assays above

COc1ncnc2[nH]cc(Cc3ccc(NCc4ccc(C(F)(F)F)nc4)nc3)c12 [P-0100, [5-(4-Methoxy-7H-pyrrolo[2,3-d]pyrimidin-5-ylmethyl)-pyridin-2-yl]-(6-trifluoromethyl-pyridin-3-ylmethyl)-amine]
not listed: [3] | [9]
≤ 10 µM: all other assays above

c1cnc(OC2CCCC2)c(CNc2ncc(Cc3c[nH]c4ncncc34)cn2)c1 [P-0086, (2-Cyclopentyloxy-pyridin-3-ylmethyl)-[5-(7H-pyrrolo[2,3-d]pyrimidin-5-ylmethyl)-pyrimidin-2-yl]-amine]
not listed: [3] | [8] | [9]
≤ 10 µM: all other assays above

FC(F)(F)c1ccc(CNc2ccc(Cc3c[nH]c4ncncc34)cn2)cn1 [P-0004, [5-(7H-Pyrrolo[2,3-d]pyrimidin-5-ylmethyl)-pyridin-2-yl]-(6-trifluoromethyl-pyridin-3-ylmethyl)-amine]
≤ 10 µM: [1] | [2] | [4] | [6] | [5]

COc1ccc(CNc2ccc(Cc3c[nH]c4ncncc34)c(F)n2)c(OC)n1 [P-0043, (2,6-Dimethoxy-pyridin-3-ylmethyl)-[6-fluoro-5-(7H-pyrrolo[2,3-d]pyrimidin-5-ylmethyl)-pyridin-2-yl]-amine]
≤ 10 µM: [1] | [7] | [2] | [4]

CC(C)c1ncc(CNc2ccc(Cc3c[nH]c4ncncc34)c(F)n2)cn1 [P-0079, [6-Fluoro-5-(7H-pyrrolo[2,3-d]pyrimidin-5-ylmethyl)-pyridin-2-yl]-(2-isopropyl-pyrimidin-5-ylmethyl)-amine]
≤ 10 µM: [2] | [9] | [4]

COc1ccc(CNc2ccc(C(=O)c3c[nH]c4ncncc34)cn2)cn1 [P-0008, {6-[(6-Methoxy-pyridin-3-ylmethyl)-amino]-pyridin-3-yl}-(7H-pyrrolo[2,3-d]pyrimidin-5-yl)-methanone]
≤ 10 µM: [1] | [3] | [4] | [5]

Fc1nc(NCc2cccnc2OCC(F)(F)F)ccc1Cc1c[nH]c2ncncc12 [P-0051, [6-Fluoro-5-(7H-pyrrolo[2,3-d]pyrimidin-5-ylmethyl)-pyridin-2-yl]-[2-(2,2,2-trifluoro-ethoxy)-pyridin-3-ylmethyl]-amine]
not listed: [3] | [7] | [9]
≤ 10 µM: all other assays above

Fc1ccc(CNc2ccc(Cc3c[nH]c4ncncc34)c(F)n2)nc1 [P-0041, (5-Fluoro-pyridin-2-ylmethyl)-[6-fluoro-5-(7H-pyrrolo[2,3-d]pyrimidin-5-ylmethyl)-pyridin-2-yl]-amine]
≤ 10 µM: [1] | [2] | [4] | [6] | [5]

COc1ncc(CNc2ccc(Cc3c[nH]c4ncncc34)c(F)n2)cc1F [P-0010, (5-Fluoro-6-methoxy-pyridin-3-ylmethyl)-[6-fluoro-5-(7H-pyrrolo[2,3-d]pyrimidin-5-ylmethyl)-pyridin-2-yl]-amine]
≤ 10 µM: [2] | [8] | [3] | [4]
